Columns and labels:
[1] = molecular target: T1, Replication protein A 70 kDa DNA-binding subunit (Homo sapiens, UniProt P27694); test: Binding affinity to RPA70 (unknown origin) by FITC-labeled probe based fluorescence polarization anisotropy
[2] = Apparent permeability in human Caco2 cells at 5 uM incubated for 120 mins by LC-MS/MS method; assay type: ADME, cell-based; details: Caco-2
[3] = Protein binding in human plasma at 1 ug/ml after 4 hrs by LC-MS/MS method; assay type: ADME, cell-free; details: read-out: PPB (converted)
[4] = molecular target: T1, Replication protein A 70 kDa DNA-binding subunit; test: Inhibition of GST-tagged X-rhodamine-labelled p53TAD2 binding to human recombinant RPA70 expressed in Escherichia coli BL21 by fluorescence anisotropy competition assay
[5] = Binding affinity to human recombinant RPA70 R41E/R43E mutant expressed in Escherichia coli BL21 using FPA by tryptophan fluorescence quenching assay
[6] = molecular target: T1, Replication protein A 70 kDa DNA-binding subunit; test: Binding affinity to human recombinant RPA70 expressed in Escherichia coli BL21 using FPA by tryptophan fluorescence quenching assay

T1 sequence (P27694 whole entry): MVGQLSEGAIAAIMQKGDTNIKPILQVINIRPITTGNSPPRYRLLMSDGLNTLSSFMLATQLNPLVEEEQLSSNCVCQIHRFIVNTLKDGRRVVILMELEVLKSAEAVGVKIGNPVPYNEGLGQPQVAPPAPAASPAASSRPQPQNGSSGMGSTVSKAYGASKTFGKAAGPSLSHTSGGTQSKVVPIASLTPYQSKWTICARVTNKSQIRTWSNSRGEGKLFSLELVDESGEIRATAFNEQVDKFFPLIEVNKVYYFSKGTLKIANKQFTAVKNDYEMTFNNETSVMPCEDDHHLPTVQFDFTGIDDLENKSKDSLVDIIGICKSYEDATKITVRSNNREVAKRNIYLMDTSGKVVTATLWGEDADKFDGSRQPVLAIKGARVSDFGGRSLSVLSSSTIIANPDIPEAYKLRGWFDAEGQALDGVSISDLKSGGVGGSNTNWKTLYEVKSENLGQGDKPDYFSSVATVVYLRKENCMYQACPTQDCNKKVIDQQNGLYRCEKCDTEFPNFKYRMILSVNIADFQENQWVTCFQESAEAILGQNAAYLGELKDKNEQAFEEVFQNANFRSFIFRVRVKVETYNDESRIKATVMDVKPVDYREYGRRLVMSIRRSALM

Kd [1] [µM]	Papp at 2 h, 5 µM [2] [×10⁻⁶ cm/s]	fraction unbound at 4 h, 1 ug/ml [3]	Kd [4] [µM]	Kd [6] [µM]	SMILES	Kd [5] [µM]
30	–	–	–	–	Cc1ccc(C(=O)Nc2ccccc2C(=O)O)cc1S(=O)(=O)Nc1ccc(Br)cc1	–
0.81	29.2	0.002	–	–	Cc1ccc(C(=O)Nc2cc(Br)ccc2C(=O)O)cc1S(=O)(=O)Nc1ccc(Cl)c(Cl)c1	–
–	–	–	9	29	CC(C)C1=C[C@@]23CC[C@@H]4[C@](C)(CCC[C@@]4(C)C(=O)O)[C@H]2C[C@@H]1[C@@H](C(=O)O)[C@@H]3C(=O)O	230
